From US7312227B2, “Compositions useful as inhibitors of JAK and other protein kinases” (Vertex Pharmaceuticals Incorporated, priority 2002, dated 2007)

Legend:
Type in all cases: biochemical
[1] = target: T1, JAK3 (Homo sapiens, UniProt P52333); assay: JAK3 inhibition assay; details: 2 μM ATP, Poly (Glu, Ala, Tyr) 6:3:1 coated plates, 60 minutes at 30° C.
T1 sequence (P52333 1-1124): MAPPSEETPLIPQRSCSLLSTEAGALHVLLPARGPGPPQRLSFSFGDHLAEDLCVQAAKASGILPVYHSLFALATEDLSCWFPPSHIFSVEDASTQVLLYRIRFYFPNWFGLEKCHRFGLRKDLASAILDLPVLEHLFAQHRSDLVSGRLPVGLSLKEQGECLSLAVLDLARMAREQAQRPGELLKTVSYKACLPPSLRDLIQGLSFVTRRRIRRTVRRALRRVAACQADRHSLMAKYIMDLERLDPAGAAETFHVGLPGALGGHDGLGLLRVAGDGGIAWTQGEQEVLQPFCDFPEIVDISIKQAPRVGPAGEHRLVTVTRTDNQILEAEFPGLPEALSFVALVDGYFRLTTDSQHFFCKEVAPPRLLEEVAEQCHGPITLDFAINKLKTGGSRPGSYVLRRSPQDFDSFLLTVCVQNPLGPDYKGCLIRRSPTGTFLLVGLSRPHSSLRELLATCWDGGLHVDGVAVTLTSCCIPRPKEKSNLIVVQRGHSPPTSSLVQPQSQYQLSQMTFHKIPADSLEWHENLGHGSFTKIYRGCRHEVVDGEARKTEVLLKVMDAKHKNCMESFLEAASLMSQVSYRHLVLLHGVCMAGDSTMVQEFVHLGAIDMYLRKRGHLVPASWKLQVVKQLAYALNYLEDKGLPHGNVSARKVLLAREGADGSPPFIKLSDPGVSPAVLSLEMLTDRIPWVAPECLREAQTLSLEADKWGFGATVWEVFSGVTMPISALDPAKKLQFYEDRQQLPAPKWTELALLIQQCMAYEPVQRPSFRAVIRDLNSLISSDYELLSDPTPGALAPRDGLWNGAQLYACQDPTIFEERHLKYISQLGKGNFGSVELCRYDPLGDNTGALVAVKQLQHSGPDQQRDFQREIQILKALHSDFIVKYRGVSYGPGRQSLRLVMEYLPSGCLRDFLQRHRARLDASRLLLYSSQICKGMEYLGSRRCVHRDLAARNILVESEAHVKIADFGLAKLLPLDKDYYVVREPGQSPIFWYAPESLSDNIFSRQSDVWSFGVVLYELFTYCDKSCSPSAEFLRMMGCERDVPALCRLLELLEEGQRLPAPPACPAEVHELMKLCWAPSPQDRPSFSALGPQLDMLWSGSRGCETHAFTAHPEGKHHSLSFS
Procedure: Compound inhibition of JAK was assayed by the method described by G. R. Brown, et al, Bioorg. Med. Chem. Lett. 2000, vol. 10, pp 575-579 in the following manner. Into Maxisorb plates, previously coated at 4° C. with Poly (Glu, Ala, Tyr) 6:3:1 then washed with phosphate buffered saline 0.05% and Tween (PBST), was added 2 μM ATP, 5 mM MgCl2, and a solution of compound in DMSO. The reaction was started with JAK enzyme and the plates incubated for 60 minutes at 30° C. The plates were then washed with PBST, 100 μL HRP-Conjugated 4G10 antibody was added, and the plate incubated for 90 minutes at 30° C. The plate was again washed with PBST, 100 μL TMB solution is added, and the plates were incubated for another 30 minutes at 30° C. Sulfuric acid (100 μL of 1M) was added to stop the reaction and the plate is read at 450 nm, and Ki values were determined.

[2] = target: CDK-2/Cyclin A (Homo sapiens, UniProt P24941); assay: CDK2 inhibition assay (coupled enzyme assay); details: 100 μM ATP, 100 μM peptide, 25 nM CDK-2/Cyclin A, 30° C.
Procedure: Compounds were screened for their ability to inhibit CDK-2/Cyclin A using a standard coupled enzyme assay (Fox et al (1998) Protein Sci 7, 2249). Reactions were carried out in 100 mM HEPES pH 7.5, 10 mM MgCl2, 25 mM NaCl, 1 mM DTT and 1.5% DMSO. Final substrate concentrations in the assay were 100 μM ATP (Sigma chemicals) and 100 μM peptide (American Peptide, Sunnyvale, Calif.). Assays were carried out at 30° C. and 25 nM CDK-2/Cyclin A. Final concentrations of the components of the coupled enzyme system were 2.5 mM phosphoenolpyruvate, 350 μM NADH, 30 μg/ml pyruvate kinase and 10 μg/ml lactate dehydrogenase.
An assay stock buffer solution was prepared containing all of the reagents listed above, with the exception of CDK-2/Cyclin A, DTT and the test compound of interest. 56 μl of the test reaction was placed in a 384 well plate followed by addition of 1 μl of 2 mM DMSO stock containing the test compound (final compound concentration 30 μM). The plate was preincubated for ˜10 minutes at 30° C. and the reaction initiated by addition of 10 μl of enzyme (final concentration 25 nM). Rates of reaction were obtained using a BioRad Ultramark plate reader (Hercules, Calif.) over a 5 minute read time at 30° C. and Ki values were determined.

[3] = target: JNK3 (Homo sapiens, UniProt P53779); assay: JNK3 inhibition assay (spectrophotometric coupled-enzyme assay); details: 10 nM activated JNK3, 10 μM ATP, 200 μM EGF receptor peptide, 30° C.
Sequence of JNK3 (P53779 whole entry): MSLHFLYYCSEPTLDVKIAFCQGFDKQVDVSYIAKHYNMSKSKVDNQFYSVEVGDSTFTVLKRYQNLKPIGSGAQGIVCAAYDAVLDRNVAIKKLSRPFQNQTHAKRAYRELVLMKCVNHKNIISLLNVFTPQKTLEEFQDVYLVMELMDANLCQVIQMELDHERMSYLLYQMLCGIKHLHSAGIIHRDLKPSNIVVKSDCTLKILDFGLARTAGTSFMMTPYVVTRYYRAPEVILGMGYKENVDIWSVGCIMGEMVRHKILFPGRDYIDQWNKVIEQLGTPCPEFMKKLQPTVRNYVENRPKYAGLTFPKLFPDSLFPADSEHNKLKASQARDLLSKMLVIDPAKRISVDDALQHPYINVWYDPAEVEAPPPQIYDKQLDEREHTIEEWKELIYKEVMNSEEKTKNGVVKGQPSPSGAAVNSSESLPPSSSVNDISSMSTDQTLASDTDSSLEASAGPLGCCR
Procedure: Compounds were assayed for the inhibition of JNK3 by a spectrophotometric coupled-enzyme assay. In this assay, a fixed concentration of activated JNK3 (10 nM) was incubated with various concentrations of a potential inhibitor dissolved in DMSO for 10 minutes at 30° C. in a buffer containing 0.1 M HEPES buffer, pH 7.5, containing 10 mM MgCl2, 2.5 mM phosphoenolpyruvate, 200 μM NADH, 150 μg/mL pyruvate kinase, 50 μg/mL lactate dehydrogenase, and 200 μM EGF receptor peptide. The EGF receptor is a phosphoryl acceptor in the JNK3-catalyzed kinase reaction. The reaction was initiated by the addition of 10 μM ATP and the assay plate is inserted into the spectrophotometer's assay plate compartment that was maintained at 30° C. The decrease of absorbance at 340 nm was monitored as a function of time. The rate data as a function of inhibitor concentration was fitted to competitive inhibition kinetic model to determine the Ki.

Ki [1]	Ki [2]	Ki [3]	SMILES
≤ 1000 nM			NS(=O)(=O)c1cccc(Nc2nccc(-c3cccc(NC(=O)c4ccco4)c3)n2)c1 [IV-A(i)-1]
≤ 1000 nM			COc1cccc(Nc2nccc(-c3cccc(N(C)C(=O)c4ccco4)c3)n2)c1 [IV-A(i)-2]
≤ 1000 nM			O=C(Nc1cccc(-c2ccnc(Nc3cccc(O)c3)n2)c1)c1ccco1 [IV-A(i)-4]
≤ 1000 nM			Nc1cccc(Nc2nccc(-c3cccc(NC(=O)c4ccccn4)c3)n2)c1 [IV-A(i)-5]
≤ 1000 nM			Nc1cccc(Nc2nccc(-c3cccc(NC(=O)c4cccs4)c3)n2)c1 [IV-A(i)-6]
≤ 1000 nM			NS(=O)(=O)c1cccc(Nc2nccc(-c3ccc(NC(=O)COc4ccccc4)cc3)n2)c1 [IV-B(i)-1]
≤ 1000 nM	≤ 1000 nM	≤ 1000 nM	Nc1cccc(Nc2nccc(-c3ccc(NC(=O)c4cccs4)cc3)n2)c1 [IV-B(i)-2]
≤ 1000 nM			Nc1cccc(Nc2nccc(-c3ccc(NC(=O)COc4ccccc4)cc3)n2)c1 [IV-B(i)-3]
≤ 1000 nM			Nc1cccc(Nc2nccc(-c3ccc(NC(=O)c4ccco4)cc3)n2)c1 [IV-B(i)-4]
≤ 1000 nM			Nc1cccc(Nc2nccc(-c3ccc(NC(=O)CN4CCOCC4)cc3)n2)c1 [IV-B(i)-5]
≤ 1000 nM			Nc1cccc(Nc2nccc(-c3ccc(NC(=O)CN4CCCC(CO)C4)cc3)n2)c1 (centres unmarked) [IV-B(i)-6]
≤ 1000 nM			Nc1cccc(Nc2nccc(-c3ccc(NC(=O)CN4CCC(CO)CC4)cc3)n2)c1 [IV-B(i)-7]
≤ 1000 nM			Nc1cccc(Nc2nccc(-c3ccc(NC(=O)CN4CCC(O)CC4)cc3)n2)c1 [IV-B(i)-8]
≤ 1000 nM			Nc1cccc(Nc2nccc(-c3ccc(NC(=O)CN4CCCC4CO)cc3)n2)c1 (centres unmarked) [IV-B(i)-9]
≤ 1000 nM			O=C(Nc1ccc(-c2ccnc(Nc3cccc(O)c3)n2)cc1)c1cccs1 [IV-B(i)-10]
≤ 1000 nM	≤ 1000 nM	≤ 1000 nM	O=C(COc1ccccc1)Nc1ccc(-c2ccnc(Nc3cccc(O)c3)n2)cc1 [IV-B(i)-11]
	≤ 1000 nM		Cc1ccc(-c2ccnc(Nc3ccccc3)n2)cc1C(=O)Nc1ccccc1 [IV-C(i)-2]
	≤ 1000 nM		Cc1ccc(-c2ccnc(Nc3ccccc3)n2)cc1C(=O)NC1CCCCC1 [IV-C(i)-3]
	≤ 1000 nM		Cc1ccc(-c2ccnc(Nc3ccccc3)n2)cc1C(=O)NCc1ccccc1 [IV-C(i)-4]
≤ 1000 nM			O=C(NCC1CCCO1)c1cccc(-c2ccnc(Nc3ccccc3)n2)c1 (centres unmarked) [IV-C(i)-15]
≤ 1000 nM			O=C(NCc1ccccc1)c1ccc(-c2ccnc(Nc3ccccc3)n2)cc1 [IV-D(i)-2]
	≤ 1000 nM		O=C(NC1CCCCC1)c1ccc(-c2ccnc(Nc3ccccc3)n2)cc1 [IV-D(i)-4]
